Data: patent US6737397B1, “Control of cancer growth through the interaction of [MET5]-enkephalin and the zeta receptor” (The Penn State Research Foundation, priority 1996, dated 2004)
Where “and” joins values, the source holds several entries; their conditions need not be identical. Identical values can stand only once. Like-named read-outs stand apart in the source and are kept apart here. Marks after values point to notes of the source that are not given here.

Legend:
μ-opioid receptor = target: T1, μ-opioid receptor (Homo sapiens, UniProt P35372); assay: [3H]DAMGO binding to HT-29 nuclear (P1) and membrane (P2) homogenates; details: P2 fraction
T1 construct: from tissue; host or cells: HT-29 human colon tumor xenografts from nude mice; nuclear (P1) and membrane (P2) homogenates
T1 sequence (P35372 whole entry): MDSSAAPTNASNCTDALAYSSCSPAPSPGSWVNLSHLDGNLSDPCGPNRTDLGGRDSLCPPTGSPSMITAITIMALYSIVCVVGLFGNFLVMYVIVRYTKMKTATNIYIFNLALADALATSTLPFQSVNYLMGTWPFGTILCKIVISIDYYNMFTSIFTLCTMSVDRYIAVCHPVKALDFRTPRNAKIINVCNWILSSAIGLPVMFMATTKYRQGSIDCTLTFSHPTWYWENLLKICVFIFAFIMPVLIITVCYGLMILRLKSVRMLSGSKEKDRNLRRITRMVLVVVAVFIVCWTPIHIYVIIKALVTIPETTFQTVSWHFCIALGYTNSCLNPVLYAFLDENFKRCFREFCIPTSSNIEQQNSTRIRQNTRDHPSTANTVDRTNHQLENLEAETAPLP

ζ-opioid receptor [1] = target: T2, ζ-opioid receptor (Homo sapiens, UniProt Q9NZT2); assay: Effect of cations and guanyl nucleotides on [3H]-[Met5]-enkephalin binding to HT-29 nuclear homogenates; design: from tissue; host or cells: HT-29 human colon tumor xenografts grown in athymic nude mice; nuclear (P1) and other subcellular fractions; details: 5, 100, 200, or 500 μM
T2 sequence (Q9NZT2 1-677): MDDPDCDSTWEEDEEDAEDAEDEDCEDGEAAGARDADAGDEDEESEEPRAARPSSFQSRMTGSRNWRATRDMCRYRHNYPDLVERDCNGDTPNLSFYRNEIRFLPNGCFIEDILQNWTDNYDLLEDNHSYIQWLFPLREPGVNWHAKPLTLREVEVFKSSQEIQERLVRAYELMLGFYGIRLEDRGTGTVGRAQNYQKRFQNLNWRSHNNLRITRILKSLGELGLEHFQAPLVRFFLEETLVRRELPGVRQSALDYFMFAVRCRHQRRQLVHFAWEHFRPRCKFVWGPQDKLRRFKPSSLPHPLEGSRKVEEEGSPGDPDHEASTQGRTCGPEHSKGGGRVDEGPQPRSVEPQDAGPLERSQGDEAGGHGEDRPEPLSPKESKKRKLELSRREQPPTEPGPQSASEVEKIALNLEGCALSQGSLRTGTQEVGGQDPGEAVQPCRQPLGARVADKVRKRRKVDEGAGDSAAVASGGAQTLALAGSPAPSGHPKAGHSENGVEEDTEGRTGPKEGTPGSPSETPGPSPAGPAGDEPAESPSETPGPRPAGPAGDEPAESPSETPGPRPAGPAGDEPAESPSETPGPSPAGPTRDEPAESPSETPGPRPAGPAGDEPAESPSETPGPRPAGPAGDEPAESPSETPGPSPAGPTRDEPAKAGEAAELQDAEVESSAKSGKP
Source text: Histograms represent the percent of specific binding±SE.

ζ opioid receptor = ζ opioid receptor (Homo sapiens, UniProt Q9NZT2)
Description: Receptor binding assays were performed according to procedures reported elsewhere [8] with some slight modifications. […] Six assays were performed to establish binding kinetics in control tumor tissue, whereas three independent assays were conducted on tumors from mice for comparison of OGF and control groups.
Receptor binding data were analyzed with a Lundon 1 (Saturation Isotherm Binding Analysis) computer program (Lundon Software, Chagrin Falls, Ohio) and Prism Software (San Diego, Calif.). Both analyses utilized non-linear least-squares regression. Saturation curves and Scatchard plots were computed directly by these programs.
Mean binding affinities and capacities for tumor tissue from animals in the OGF and control groups were compared using analysis of variance and Newman-Keuls tests.

ζ-opioid receptor [2] = target: T2, ζ-opioid receptor
ζ-opioid receptor [3] = target: T2, ζ-opioid receptor; details: for Bmax, fmol/mg protein: subcellular fractionation, P1 nuclear fraction
ζ-opioid receptor [4] = target: T2, ζ-opioid receptor; details: nuclear preparation of cultured HT-29 cells
ζ-opioid receptor [5] = target: T2, ζ-opioid receptor; assay: Competition for binding of [3H][Met5]enkephalin (4.0 nM) in nuclear homogenates of HT-29 human colon tumors; design: from tissue; host or cells: HT-29 human colon tumor xenografts grown in athymic nude mice; nuclear (P1) and other subcellular fractions
HT-29 cells = assay: Growth assay (cell counts) of HT-29 human colon cancer cells in culture; format: cell-based
Description: In some examples, cultures of HT-29 cells were maintained in McCoy's 5A media without fetal calf serum.
(§1) Cells were seeded at equivalent amounts into 75 cm^2 flasks or into 9.6 cm^2 wells (6-well plates, Falcon) and were counted 24 hr later to determine plating efficiency. Drugs or sterile water were added beginning 24 hr after seeding (=0 hours) and both media and drugs were changed daily. All drugs were prepared in sterile water and dilutions represent final concentrations of the compounds. At appropriate times, cells were harvested with 0.05% trypsin/0.53 mM EDTA, centrifuged, and counted with a hemacytometer at 200×. Cell viability was determined by trypan blue staining. At least 2 aliquots/flask or well were counted and 2 flasks or wells/time point/treatment group were sampled.

[6] = tested on: BxPC-3 human pancreatic tumor cells; assay: BxPC-3 human pancreatic tumor xenografts in nude mice treated with OGF; format: in vivo
Description: BxPC-3 human pancreatic cancer cells, purchased from the American Type Culture Collection (Rockville, Md.), were grown in RPMI media containing 10% fetal calf serum, penicillin (10 units/ml), and streptomycin (100 μg/ml) in an atmosphere of 93% air and 7% CO2 at 37° C. Cell viability was determined by the trypan blue exclusion test. Three-to-4-week-old male athymic nude mice, obtained from Charles River Laboratories (Wilmington, Mass.), were injected subcutaneously over the right shoulder with BxPC-3 cells (log phase) in a 0.5 ml suspension of RPMI media. The day of tumor cell inoculation was considered day 0. Mice were evaluated daily and the date that the tumor became ‘visible’ was recorded. Individual tumors were measured with vernier calipers every 2 days. Measurements of the largest perpendicular dimensions were recorded and tumor volume was calculated using the formula: length×width^2×0.5[25]. The time of ‘initial’ appearance of a tumor wag considered to be the day when tumor volume was 5 mm^3 of greater. All mice were euthanized and necropsied 30 days after tumor cell inoculation. Tumor tissues for receptor binding assays, radioimmunoassays, and immunocytochemistry were rapidly frozen in liquid nitrogen and stored at −70° C. until assayed.
Drug treatment was initiated on the day of tumor cell inoculation. […] Injections were administered in the right or left flank. Animals were weighed weekly and appropriate dosage adjustments made.
The latencies for visible and initial tumor appearance, as well as the appearance of a tumor volume measuring 62.5 mm^3 (when each perpendicular measurement was 5 mm), were recorded.
Latencies for visible and initial appearance as well as tumors ≧62.5 mm were analyzed using one way analysis of variance; subsequent comparisons were made with the Newman-Keuls tests. The number of mice with initial tumor appearance on selected days was expressed as a ratio of the total number of mice in the group, and comparisons of percentages were made with chi-square tests.

COLO 205 cells = assay: Growth assay (cell counts) of COLO 205 human colon cancer cells; format: cell-based; details: 10^−6 M, 48 hr
Description: (§2) HT-29, WiDr, and COLO 205 cell lines were obtained from the American Type Culture Collection (Rockville, Md.). HT-29 cells were grown in McCoy's 5A media (modified), WiDr cells in Minimum Essential Media, and COLO 205 cells in RPMI 1640 media; all media contained 10% fetal calf serum, 2 mM […], 1.2% sodium bicarbonate and antibiotics (11 Units/ml penicillin, 10 μg/ml streptomycin, 10 μg/ml neomycin) in a humidified atmosphere of 7% CO2/93% air at 37° C. In some examples, cultures of HT-29 cells were maintained in McCoy's 5A media without fetal calf serum.
as §1
(§3) To examine the ubiquity of opioid activity with respect to colon cancer, two other colon cancer cell lines were investigated: COLO 205 and WiDr.

[7] = tested on: HT-29 human colon cancer cells; assay: HT-29 human colon cancer xenografts in nude mice treated with OGF and/or naloxone
WiDr cells = assay: Growth assay (cell counts) of WiDr human colon cancer cells; format: cell-based; details: 10^−6 M, 48 hr
Description: as §2, §1, §3

[8] = target: T3, [Met5]-enkephalin receptor (Homo sapiens, UniProt Q9NZT2); assay: [3H]-[Met5]-enkephalin binding on HT-29 cells after 48 h exposure to OGF or NTX (receptor regulation)
T3 construct: endogenous in cells; host or cells: HT-29 human colon cancer cells, log phase, nuclear pellet (P1)
T3 sequence (Q9NZT2 1-677): T2 sequence (Q9NZT2 1-677)
Description: Log phase cells were incubated in 0.05% trypsin for at least 30 min with gentle agitation at 37° C. in order to reduce clumping of cells and facilitate isolation of cell nuclei. Preparations were homogenized (Polytron, setting 6, 2×10 sec) in a 1:20 (wt/vol) solution (=Tris/all) of cold 50 mM Tris HCl buffer with 0.1 mg/ml bacitracin, 1 μg/ml leupeptin, 60 nM thiorphan, 1 mM EGTA, and 0.6 mg/l PMSF, pH 7.4, at 4° C. […] Protein homogenates of P1 were diluted with Tris/all and incubated at room temperature (22° C.) for 20 min to remove endogenous opioid peptides.
The final volume of the incubation mixture was 1 ml. The incubation was terminated by rapid filtration through Whatman GF-B filters under vacuum pressure with a Brandel Cell Harvester. Filters were rinsed three times with 5 ml volumes of ice-cold 50 mM Tris buffer, dried at 60° C. for 1 hour, and counted in a 2:1 solution of Aquasol-toluene by liquid scintillation spectrometry (Beckman LS-2800). […] Duplicate tubes of homogenates were assayed for each-concentration utilized. Protein concentrations were determined by the BioRad method with gamma globulin as a standard.

[9] = 5 mg/kg OGF three times daily s.c.

C[C@@H](NC(=O)[C@@H](N)Cc1ccc(O)cc1)C(=O)NCC(=O)N(C)[C@@H](Cc1ccccc1)C(=O)NCCO [[3H]DAMGO]
Bmax, fmol/mg protein (μ-opioid receptor): 20.9 ± 4.8 fmol/mg protein

Nc1nc2c(ncn2C2OC(COP(=O)([O-])OP(=O)([O-])NP(=O)([O-])[O-])C(O)C2O)c(=O)[nH]1.[Li+].[Li+].[Li+].[Li+] (stereo not drawn) [GppNHp, guanylyl-imidodiphosphate (GppNHp) tetralithium salt]
effect on binding of [3H]-[Met5]-enkephalin (ζ-opioid receptor [1]): not markedly reduced

[^3H]-[Met^5]-enkephalin
binding capacity (Bmax) (ζ opioid receptor; tumor tissue from control animals): 46.8±4.0 fmol/mg protein
Bmax, fmol/mg protein (ζ-opioid receptor [2]; Patient 1, splenic flexure adenocarcinoma): 34.3 ± 9.0 fmol/mg protein
Bmax, fmol/mg protein (ζ-opioid receptor [2]; Patient 2, sigmoid adenocarcinoma): 32.7 ± 1.4 fmol/mg protein
mean binding capacity (Bmax) (ζ-opioid receptor [2]; data from both patients averaged): 33.5±4.1 fmol/mg protein
mean binding capacity (Bmax) (ζ-opioid receptor [3]; P1 nuclear homogenates of HT-29 tumors, 150 min, 22° C., pH 7.4): 364.8±25.7 fmol/mg protein
Bmax, fmol/mg protein (ζ-opioid receptor [3]): 256.0±12.6 fmol/mg protein
Bmax, fmol/mg protein (ζ-opioid receptor [3]; listed as [^3H][Met^5]enkephalin): 256.0 ± 12.6 fmol/mg protein
binding capacity (Bmax) (ζ-opioid receptor [4]): 43 fmol/mg protein

[Met^5]-enkephalin
greater ability to displace [3H]-[Met5]-enkephalin than the next ranking compound (ζ-opioid receptor [5]): 2.3 fold
binding affinity versus control group (ζ opioid receptor; tumors from OGF-treated mice): did not differ
binding sites reduced from control levels (ζ opioid receptor; tumors from OGF-treated mice): 58%
Bmax, fmol/mg protein (ζ opioid receptor; tumors from mice treated with 5 mg/kg OGF three times daily): 24.6 ± 5.2 fmol/mg protein
cell number greater after removal than in cultures maintained with peptide (HT-29 cells): more than 80%
cell number versus controls (HT-29 cells): comparable to controls
decrease in cell number from control values (HT-29 cells): 35%
effect on cell growth in serum-free media (HT-29 cells): inhibitory effect on cell growth
more cells after removal than in cultures continuing to receive peptide (HT-29 cells): 37%
reduction in number of colon cancer cells (HT-29 cells): 41% and 56%
Number of mice with tumors 7 days after tumor cell inoculation ([6]; 5 mg/kg OGF three times daily): 0/13*
Number of mice with tumors 14 days after tumor cell inoculation ([6]; 5 mg/kg OGF three times daily): 5/13*
Number of mice with tumors 15 days after tumor cell inoculation ([6]; 5 mg/kg OGF three times daily): 8/13*
Number of mice with tumors 22 days after tumor cell inoculation ([6]; 5 mg/kg OGF three times daily): 12/13
Number of mice with tumors 30 days after tumor cell inoculation ([6]; 5 mg/kg OGF three times daily): 12/13
interval from inoculation to initial tumor appearance longer than sterile water ([6]; 5 mg/kg OGF three times daily): 43%
latency until tumor reached 62.5 mm^3 longer than control group ([6]; 5 mg/kg OGF three times daily): ~41%
visible tumors developed later than controls ([6]; 5 mg/kg OGF three times daily): more than 3 days
Latency (days) for tumors of 62.5 mm^3 in size [6, 9]: 17.2 ± 1.1 days
Latency (days) for visible tumor [6, 9]: 12.7 ± 1.4 days
Latency (days) for initial tumor appearance ([6]; 5 mg/kg OGF three times daily s.c., listed as OGF): 15.2 days and 15.2 ± 1.2 days
animals without a neoplasia ([6]; day 15): ~40%
mice with a tumor measuring ≧5 mm^3 ([6]; fifteen days after tumor cell inoculation): less than 62%
mean tumor volumes versus control group ([6]; within the 30 days of the experiment): no significant differences
fewer cells than control cultures (COLO 205 cells): 58%
Latency for measurable tumor appearance ([7]; 0.5 mg/kg daily): 28.0 ± 0.0 days
Latency for measurable tumor appearance, days, range ([7]; 0.5 mg/kg daily): (28) days
Latency for palpable tumor ([7]; 0.5 mg/kg daily): 18.6 ± 3.2 days
Latency for visible tumor ([7]; 0.5 mg/kg daily): 22.4 ± 2.6 days
No. of mice with tumors 21 days after inoculation ([7]; 0.5 mg/kg daily): 2/14†
No. of mice with tumors 50 days after inoculation ([7]; 0.5 mg/kg daily): 7/14*
Latency for measurable tumor appearance ([7]; 5 mg/kg daily): 22.2 ± 2.3 days
Latency for measurable tumor appearance, days, range ([7]; 5 mg/kg daily): (13-22) days
Latency for palpable tumor ([7]; 5 mg/kg daily): 19.2 ± 2.2 days
Latency for visible tumor ([7]; 5 mg/kg daily): 20.2 ± 2.2 days
No. of mice with tumors 21 days after inoculation ([7]; 5 mg/kg daily): 4/14†
No. of mice with tumors 50 days after inoculation ([7]; 5 mg/kg daily): 6/14†
Latency for measurable tumor appearance ([7]; 25 mg/kg daily): 24.0 ± 4.5 days
Latency for measurable tumor appearance, days, range ([7]; 25 mg/kg daily): (12-32) days
Latency for palpable tumor ([7]; 25 mg/kg daily): 22.0 ± 4.5 days
Latency for visible tumor ([7]; 25 mg/kg daily): 23.0 ± 4.5 days
No. of mice with tumors 21 days after inoculation ([7]; 25 mg/kg daily): 2/14†
No. of mice with tumors 50 days after inoculation ([7]; 25 mg/kg daily): 6/14†
animals with a tumor ([7]; 50 days after inoculation, 0.5, 5, or 25 mg/kg OGF): 36-50%
mice that never developed xenografts of colon cancer ([7]; all OGF doses, 7-wk experimental period): 57%
mice with a measurable tumor ([7]; by day 21, 0.5, 5, or 25 mg/kg OGF): 14-28%
dose-response of tumor incidence and delay in oncogenesis ([7]; mouse, in vivo): no distinct dose-response effect
fewer cells than control cultures (WiDr cells): 41%
Bmax of [3H]-[Met5]-enkephalin ([8]; HT-29 cells after 48 h of exposure to the treatment): 18.6 ± 1.1
Bmax reduced versus control cells ([8]; chronic exposure (48 h)): 50%
